{
  "source": "patent US20250090482A1",
  "about": "“COMPOSITIONS AND METHODS FOR THE TREATMENT OF DEPRESSION” (Janssen Pharmaceuticals, Inc., priority 2022, published 2025)",
  "key": {"[1]": {"test_system": "TRD patients, 3MM biomarker signature positive or negative", "test": "3MM biomarker signature analysis of MADRS treatment effect across esketamine TRD trials", "format": "in vivo, human", "settings": "for treatment effect, improvement over placebo: end of double blind treatment", "procedure": "(§1) Samples of venous blood were obtained from patients and healthy control subjects from subject described in Example 1 and from the other clinical trials referenced herein. Serum or plasma was prepared from the samples of venous blood. Measurements of human CRP and IL-6-R were performed in serum using an MSD Sector 6000 with the kits #K151STD and K151ALC (MesoScale Discovery, Rockville, MD). Human TNFα was quantified in serum using a Simoa HD-1 analyzer with kit #143 (Quanterix, Lexington, MA). All measures were performed according to kit manufacturer's recommendations.\n(§2) As used in the following biomarker assay analysis, treatment (TRT) refers to treatment with intranasal esketamine plus optionally an oral antidepressant and placebo (PBO) refers to treatment with a placebo plus optionally an oral antidepressant.\n(§3) The following biomarker signatures were employed: • 3MM: Inflammatory biomarker signature with positive status defined by CRP>3 mg/L and (TNFα>[…] or sIL6R>25 ng/mL). • 2MM: Inflammatory biomarker signature with positive status defined by CRP>3 mg/L and sIL6R>25 ng/mL. • CRP: Inflammatory biomarker signature with positive status defined by CRP>3 mg/L/\n(§4) The 3MM signature was tested in clinical trials for adjunctive MDD, including treatment-resistant MDD (TRD) and MDD with suicidal ideation (SUI). […] Significant was driven by Esketamine (ESK) TRD trials."}, "[2]": {"test_system": "MDD with suicidal ideation (SUI)", "test": "3MM biomarker signature analysis in esketamine trials with suicidal ideation (SUI)", "format": "in vivo, human", "procedure": "as §1, §2, §3, §4"}},
  "note": "Values joined by “and” are separate entries in the source; they are usually repeats but may differ in a detail not shown here. Equal values may be shown once.",
  "data": [
    {"compound": "CN[C@]1(c2ccccc2Cl)CCCCC1=O", "note": "[esketamine, (S)-2-(2-chlorophenyl)-2-(methylamino)cyclohexanone]", "values": [
      {"measurement": "treatment effect, improvement over placebo", "setting": "[1]; 3MM biomarker signature negative subjects", "value": "2 MADRS points and 2.0 MADRS points"},
      {"measurement": "treatment effect, improvement over placebo", "setting": "[1]; 3MM biomarker signature positive subjects", "value": 7.8, "unit": "MADRS points"},
      {"measurement": "difference between subtypes (Signature advantage)", "setting": "[1]; 3MM positive minus negative", "value": 5.8, "unit": "point"},
      {"measurement": "prediction of treatment effect by 3MM status at baseline", "setting": "[2]", "value": "did not predict treatment effect"}
    ]}
  ]
}
